From ChEMBL document CHEMBL5724914, “Linking interpersonal differences in gut microbiota composition and drug biotransformation activity” (2024)

Key:
[1] = (§1) The drug is tested on Z-022 corresponding to mouse gut metagenome with ENA study accession number: PRJEB37062 and ENA sample accession number: ERS12561821 for biotransformation under anaerobic condition. The drug concentrations were measured over 9 timepoints collected between 0 and 24 hours of incubation by liquid-chromatography-coupled mass spectrometry (LC–MS); details: 2 µM
[2] = as §1, with “Z-012” for “Z-022”, “to” for “to mouse gut”, “ERS12561812” for “ERS12561821”; details: 2 µM
[3] = as §1, with “WLS-010” for “Z-022”, “human” for “mouse”, “ERS12561743” for “ERS12561821”; details: 2 µM
[4] = human gut metagenome, 24 h, 2 µM
[5] = as §1, with “WLS-082” for “Z-022”, “human” for “mouse”, “ERS12561751” for “ERS12561821”; details: 2 µM
[6] = human gut metagenome, 24 h, 2 µM; remark: listed apart in the source
[7] = as §1, with “Z-029” for “Z-022”, “rat” for “mouse”, “ERS12561828” for “ERS12561821”; details: 2 µM
[8] = as §1, with “Z-002” for “Z-022”, “rabbit” for “mouse”, “ERS12561802” for “ERS12561821”; details: 2 µM
[9] = as §1, with “Z-004” for “Z-022”, “to” for “to mouse gut”, “ERS12561804” for “ERS12561821”; details: 2 µM
Further: call rule not given here.

SMILES	Bacterial Biotransformation [1]	Bacterial Biotransformation [2]	Bacterial Biotransformation [3]	Bacterial Biotransformation [4]	Bacterial Biotransformation [5]	Bacterial Biotransformation [6]	Bacterial Biotransformation [7]	Bacterial Biotransformation [8]	Bacterial Biotransformation [9]
CC(C)(C)NC(=O)[C@H]1CC[C@H]2[C@@H]3CC[C@H]4NC(=O)C=C[C@]4(C)[C@H]3CC[C@]12C [FINASTERIDE]	Compound metabolized	Compound metabolized	Compound metabolized	Compound metabolized	Compound metabolized	Compound metabolized	Compound NOT metabolized	Compound metabolized	Compound NOT metabolized
COC1=C(OC)C(=O)C(CCCCCCCCCCO)=C(C)C1=O [IDEBENONE]	Compound NOT metabolized	Compound metabolized	Compound metabolized	Compound metabolized	Compound metabolized	Compound metabolized	Compound NOT metabolized	Compound metabolized	Compound NOT metabolized
CC1Cc2ccccc2N1NC(=O)c1ccc(Cl)c(S(N)(=O)=O)c1 (stereo unspecified) [INDAPAMIDE]	Compound NOT metabolized	Compound NOT metabolized	Compound NOT metabolized	Compound NOT metabolized	Compound NOT metabolized	Compound NOT metabolized	Compound NOT metabolized	Compound NOT metabolized	Compound NOT metabolized
COc1ccc2c(c1)c(CC(=O)O)c(C)n2C(=O)c1ccc(Cl)cc1 [INDOMETHACIN]	Compound NOT metabolized	Compound NOT metabolized	Compound metabolized	Compound metabolized	Compound NOT metabolized	Compound metabolized	Compound NOT metabolized	Compound NOT metabolized	Compound NOT metabolized
CC(CCc1ccccc1)NCC(O)c1ccc(O)c(C(N)=O)c1 (stereo unspecified) [LABETALOL]	Compound metabolized	Compound NOT metabolized	Compound NOT metabolized	Compound NOT metabolized	Compound NOT metabolized	Compound NOT metabolized	Compound NOT metabolized	Compound NOT metabolized	Compound NOT metabolized
Nc1nnc(-c2cccc(Cl)c2Cl)c(N)n1 [LAMOTRIGINE]	Compound NOT metabolized	Compound NOT metabolized	Compound NOT metabolized	Compound NOT metabolized	Compound NOT metabolized	Compound metabolized	Compound NOT metabolized	Compound NOT metabolized	Compound NOT metabolized
OC(c1cc(C(F)(F)F)nc2c(C(F)(F)F)cccc12)C1CCCCN1 (stereo unspecified) [MEFLOQUINE]	Compound metabolized	Compound NOT metabolized	Compound metabolized	Compound metabolized	Compound metabolized	Compound metabolized	Compound metabolized	Compound metabolized	Compound NOT metabolized
CC(=O)O[C@]1(C(C)=O)CC[C@H]2[C@@H]3C=C(C)C4=CC(=O)CC[C@]4(C)[C@H]3CC[C@@]21C [MEGESTROL ACETATE]	Compound NOT metabolized	Compound metabolized	Compound metabolized	Compound metabolized	Compound metabolized	Compound metabolized	Compound NOT metabolized	Compound metabolized	Compound metabolized
CC12CC3CC(C)(C1)CC(N)(C3)C2 [MEMANTINE]	Compound metabolized	Compound NOT metabolized	Compound NOT metabolized	Compound NOT metabolized	Compound NOT metabolized	Compound NOT metabolized	Compound NOT metabolized	Compound NOT metabolized	Compound NOT metabolized
Cc1cc(C)cc(OCC2CNC(=O)O2)c1 (stereo unspecified) [METAXALONE]	Compound NOT metabolized	Compound NOT metabolized	Compound metabolized	Compound metabolized	Compound metabolized	Compound metabolized	Compound NOT metabolized	Compound NOT metabolized	Compound NOT metabolized
COC(=O)C(c1ccccc1)C1CCCCN1 (stereo unspecified) [METHYLPHENIDATE]	Compound NOT metabolized	Compound NOT metabolized	Compound NOT metabolized	Compound NOT metabolized	Compound NOT metabolized	Compound NOT metabolized	Compound NOT metabolized	Compound metabolized	Compound metabolized
CN1CCN2c3ccccc3Cc3ccccc3C2C1 (stereo unspecified) [MIANSERIN]	Compound metabolized	Compound NOT metabolized	Compound NOT metabolized	Compound metabolized	Compound NOT metabolized	Compound metabolized	Compound NOT metabolized	Compound metabolized	Compound NOT metabolized
CC#C[C@]1(O)CC[C@H]2[C@@H]3CCC4=CC(=O)CCC4=C3[C@@H](c3ccc(N(C)C)cc3)C[C@@]21C [MIFEPRISTONE]	Compound NOT metabolized	Compound NOT metabolized	Compound metabolized	Compound NOT metabolized	Compound metabolized	Compound metabolized	Compound NOT metabolized	Compound metabolized	Compound NOT metabolized
CC(C)(C)NCC(O)COc1cccc2c1CC(O)C(O)C2 (stereo unspecified) [NADOLOL]	Compound metabolized	Compound NOT metabolized	Compound NOT metabolized	Compound NOT metabolized	Compound NOT metabolized	Compound NOT metabolized	Compound NOT metabolized	Compound metabolized	Compound NOT metabolized
CC(C)[C@H]1CC[C@H](C(=O)N[C@H](Cc2ccccc2)C(=O)O)CC1 [NATEGLINIDE]	Compound NOT metabolized	Compound NOT metabolized	Compound metabolized	Compound metabolized	Compound metabolized	Compound metabolized	Compound NOT metabolized	Compound metabolized	Compound NOT metabolized
CN(C)C(=O)Oc1cccc([N+](C)(C)C)c1.[Br-] [NEOSTIGMINE BROMIDE]	Compound NOT metabolized	Compound NOT metabolized	Compound NOT metabolized	Compound NOT metabolized	Compound NOT metabolized	Compound NOT metabolized	Compound metabolized	Compound metabolized	Compound NOT metabolized
Cc1cc2c(s1)Nc1ccccc1N=C2N1CCN(C)CC1 [OLANZAPINE]	Compound NOT metabolized	Compound NOT metabolized	Compound NOT metabolized	Compound NOT metabolized	Compound NOT metabolized	Compound NOT metabolized	Compound NOT metabolized	Compound metabolized	Compound metabolized
Cc1ccccc1C(OCCN(C)C)c1ccccc1.O=C(O)CC(O)(CC(=O)O)C(=O)O (stereo unspecified) [ORPHENADRINE CITRATE]	Compound NOT metabolized	Compound NOT metabolized	Compound metabolized	Compound metabolized	Compound NOT metabolized	Compound NOT metabolized	Compound NOT metabolized	Compound metabolized	Compound metabolized
CC(=O)CCCCn1c(=O)c2c(ncn2C)n(C)c1=O [PENTOXIFYLLINE]	Compound NOT metabolized	Compound NOT metabolized	Compound NOT metabolized	Compound NOT metabolized	Compound NOT metabolized	Compound NOT metabolized	Compound NOT metabolized	Compound NOT metabolized	Compound NOT metabolized
